A word on the IC50: it is the point on the concentration scale where inhibition reaches its midpoint.

This note sets out measurements from ChEMBL document CHEMBL3886310, “Pyrrolidine derivatives, pharmaceutical compositions and uses thereof” (2015).

The target in the test is Acetyl-CoA carboxylase 2 (Homo sapiens, UniProt O00763). The experiment in a line: Spectrophotometric 384 Well Assay: Assay reactions are then carried out in 384-well plates, with hACC2 in an appropriate dilution and at final assay concentrations (f.c.) of 100 mM Tris (pH 7.5), 10 mM trisodium citrate, 25 mM KHCO3, 10 mM MgCl2, 0.5 mg/ml BSA, 3.75 mM reduced L-glutathione, 15 U/ml lactate dehydrogenase, 0.5 mM phosphoenolpyruvate, 15 U/ml pyruvate kinase, compounds at different concentrations at final DMSO concentrations of 1%.The enzymatic reaction is then started by addition of a mixture of NADH, acetyl Coenzyme A (both 200 μM f.c.) and ATP (500 uM f.c.). The decrease of the optical density (slope S) is then determined at 25° C. at a wavelength of 340 nm over 15 minutes in a spectrophotometric reader.

Molecules are shown by their SMILES.

Chain of Acetyl-CoA carboxylase 2 (O00763 whole entry): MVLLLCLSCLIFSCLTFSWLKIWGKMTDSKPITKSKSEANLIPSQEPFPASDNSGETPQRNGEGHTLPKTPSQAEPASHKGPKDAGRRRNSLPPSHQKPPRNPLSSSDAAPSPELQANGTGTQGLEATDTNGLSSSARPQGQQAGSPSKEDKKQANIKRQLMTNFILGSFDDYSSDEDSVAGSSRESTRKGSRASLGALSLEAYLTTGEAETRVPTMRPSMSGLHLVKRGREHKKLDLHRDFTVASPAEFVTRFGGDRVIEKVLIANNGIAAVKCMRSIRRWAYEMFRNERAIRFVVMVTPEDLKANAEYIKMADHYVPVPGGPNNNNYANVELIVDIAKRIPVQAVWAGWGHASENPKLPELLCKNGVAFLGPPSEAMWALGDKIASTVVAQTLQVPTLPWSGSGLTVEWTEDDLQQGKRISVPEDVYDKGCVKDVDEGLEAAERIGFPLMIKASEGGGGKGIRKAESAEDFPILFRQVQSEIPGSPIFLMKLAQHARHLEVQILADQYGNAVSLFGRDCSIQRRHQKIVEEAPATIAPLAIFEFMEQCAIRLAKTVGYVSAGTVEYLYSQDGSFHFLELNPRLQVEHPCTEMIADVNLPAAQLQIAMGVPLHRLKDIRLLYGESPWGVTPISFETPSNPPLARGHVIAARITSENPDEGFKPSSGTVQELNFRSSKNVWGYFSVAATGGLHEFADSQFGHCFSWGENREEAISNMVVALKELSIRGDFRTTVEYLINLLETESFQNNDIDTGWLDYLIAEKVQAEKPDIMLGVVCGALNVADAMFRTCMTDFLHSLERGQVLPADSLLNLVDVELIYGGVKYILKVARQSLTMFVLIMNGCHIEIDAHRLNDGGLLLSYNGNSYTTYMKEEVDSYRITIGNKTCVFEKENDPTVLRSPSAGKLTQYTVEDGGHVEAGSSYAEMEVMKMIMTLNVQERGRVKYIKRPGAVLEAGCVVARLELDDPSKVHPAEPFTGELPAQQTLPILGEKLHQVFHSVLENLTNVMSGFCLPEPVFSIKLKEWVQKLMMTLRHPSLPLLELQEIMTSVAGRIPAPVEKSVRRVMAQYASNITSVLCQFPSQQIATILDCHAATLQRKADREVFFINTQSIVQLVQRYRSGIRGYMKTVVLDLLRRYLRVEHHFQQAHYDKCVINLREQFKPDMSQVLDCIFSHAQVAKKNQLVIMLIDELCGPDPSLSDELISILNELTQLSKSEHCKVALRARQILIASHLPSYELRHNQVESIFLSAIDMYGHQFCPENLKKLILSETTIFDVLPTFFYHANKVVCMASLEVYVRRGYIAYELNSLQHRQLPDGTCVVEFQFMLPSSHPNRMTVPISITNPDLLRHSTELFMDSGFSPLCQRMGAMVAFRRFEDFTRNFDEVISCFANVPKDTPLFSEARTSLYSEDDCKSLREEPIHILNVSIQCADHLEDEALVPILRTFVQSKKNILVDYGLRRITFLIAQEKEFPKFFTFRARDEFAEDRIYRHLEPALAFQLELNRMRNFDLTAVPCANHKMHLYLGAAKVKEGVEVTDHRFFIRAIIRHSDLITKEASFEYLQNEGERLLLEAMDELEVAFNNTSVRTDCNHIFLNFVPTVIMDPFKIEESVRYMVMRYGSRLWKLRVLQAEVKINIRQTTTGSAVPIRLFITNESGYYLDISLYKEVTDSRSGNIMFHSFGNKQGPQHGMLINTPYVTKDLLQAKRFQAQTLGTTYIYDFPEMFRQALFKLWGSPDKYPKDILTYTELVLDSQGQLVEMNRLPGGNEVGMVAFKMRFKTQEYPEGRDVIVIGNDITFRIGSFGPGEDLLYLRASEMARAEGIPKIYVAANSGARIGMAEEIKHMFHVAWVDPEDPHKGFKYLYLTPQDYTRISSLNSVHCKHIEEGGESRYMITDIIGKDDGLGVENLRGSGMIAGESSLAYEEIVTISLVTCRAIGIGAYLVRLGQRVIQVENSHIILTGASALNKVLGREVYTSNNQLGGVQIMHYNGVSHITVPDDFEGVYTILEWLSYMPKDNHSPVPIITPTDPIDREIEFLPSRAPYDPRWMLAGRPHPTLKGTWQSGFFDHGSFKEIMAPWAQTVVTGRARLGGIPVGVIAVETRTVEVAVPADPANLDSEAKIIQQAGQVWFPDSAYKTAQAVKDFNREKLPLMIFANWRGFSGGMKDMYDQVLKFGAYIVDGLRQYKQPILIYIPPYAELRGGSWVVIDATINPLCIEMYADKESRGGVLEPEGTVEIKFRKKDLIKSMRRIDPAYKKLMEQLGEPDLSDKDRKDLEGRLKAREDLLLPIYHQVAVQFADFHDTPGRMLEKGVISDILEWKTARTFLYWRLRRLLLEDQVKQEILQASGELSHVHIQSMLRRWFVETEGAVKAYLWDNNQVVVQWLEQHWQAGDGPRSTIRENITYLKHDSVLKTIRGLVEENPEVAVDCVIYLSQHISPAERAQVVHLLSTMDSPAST

`COC(=O)N[C@@H](C)c1ccc(OC2CCN(c3ccc(OC(C)C)cc3)C2)cc1` (some centres not stated): the IC50 came to 1360 nM.
For `C[C@H](NC(=O)c1cn[nH]c1)c1ccc(O[C@@H]2CCN(c3ccc(OCC4CC4)cc3)C2)cc1`, the IC50 worked out at 16 nM.
